Patent EP4745128A1, “COMPOUND, PHARMACEUTICAL COMPOSITION COMPRISING SAME, AND USE THEREOF” (Shenzhen Zhongge Biological Technology Co., Ltd., priority 2023, dated 2025)
Values belong to the compound of their own block, whether it stands above or below them.

How the values were obtained:
mouse models = conditions: cited from earlier work
model animals = conditions: after three days of oral administration; cited from earlier work
[1] = Phase 1 data from healthy subjects; cited from earlier work
[2] = system: HEK293T/17-ATF4 uORF-Luc-Puro monoclonal cells; test: Cellular activity assay: ATF4 luciferase reporter, thapsigargin-induced stress; type: cell-based; conditions: Homo sapiens, HEK-293T; ATF4 reporter expression; 50 nM thapsigargin, 6 h incubation
Text: The ATF4 luciferase reporter plasmid consists of two components: the 5' untranslated region sequence of the ATF4 gene and the luciferase encoding sequence. Specifically, the ATF4 5' untranslated region sequence (NCBI Database accession number BC022088.2) containing two upstream open reading frames (uORFs) and the firefly luciferase encoding gene were cloned into the pLVX-Puro vector (Unibio, VT1465). The packaging plasmids for lentivirus are psPAX2 (Unibio, VT1444) and pMD2.G (Unibio, VT1443). The three plasmids above were co-transfected into HEK293T/17 cells using X-tremeGENE 9 DNA transfection reagent, and the lentivirus-containing culture medium was collected 48 hours post-transfection. The HEK293T/17 cells transduced with the lentivirus were selected using 1 µg/mL puromycin, followed by obtaining a monoclonal cell line via limited dilution.
Using this cell line, the translational regulation of ATF4 can be detected via […], and the activity of the eIF2B activator can be tested. The specific experimental procedure was as follows: Seed 6,000 HEK293T/17-ATF4 uORF-Luc-Puro monoclonal cells in a 384-well plate and allow the cells to adhere overnight. The test compounds were dissolved in DMSO and added along with 50 nM thapsigargin into the cell culture medium, followed by incubation for 6 h. Thapsigargin was used to induce cellular stress, thereby upregulating translation of the ATF4 protein. After 6 hours of treatment, cells were lysed using the One-Glo Luciferase Assay Kit (Promega #E6120), then the luminescence values were measured using the LUM program of the EnVision 2104 plate reader.
The relative expression level of the ATF4 reporter gene (ATF4 reporter expression %) was calculated as follows: • ATF4 reporter expression %=(ave_sample-ave_vc)/(ave_pc-ave_vc)*100%. • ave_vc: mean signal value of negative control • ave_pc: mean signal value of positive control • ave_sample: mean signal value of sample
The EC50 value was calculated by fitting a dose-response curve: • The correspondence between the relative expression level of the ATF4 reporter gene and the compound concentration was fitted using the nonlinear regression log(inhibitor) vs. response - variable slope (four parameters) approach in GraphPad 9 software. • X axis: log of compound concentration; Y: relative expression level of ATF4 reporter gene. • Y = Bottom + (Top−Bottom)/(1+10^(∧)((LogEC50−X)*HillSlope)) [formula]

[3] = Pharmacokinetic assessment in mice; type: in vivo; conditions: plasma
Procedure: The test compound was dissolved in a solvent to prepare a clear solution or homogeneous suspension. Three mice per group were administered 1 mg/kg intravenously in the tails and 30 mg/kg orally (PO). Blood samples were collected at 0.083 h, 0.25 h, 0.5 h, 1 h, 2 h, 4 h, 8 h, and 24 h post intravenous administration, and at 0.25 h, 0.5 h, 1 h, 2 h, 4 h, 6 h, 8 h, and 24 h post oral administration. Plasma samples were centrifuged to obtain the supernatant, which was prepared as samples for quantitative analysis by LC/MS/MS. Table 2 PK Properties of Exemplary Compound 3 in Mice

SMILES: O=C(COc1ccc(Cl)cc1)NC1CCC(NC(=O)COc2ccc(Cl)cc2)CC1 (stereo not drawn) [ISRIB]
long-term memory (mouse models): improve long-term memory

SMILES: NC(CO)(CO)CO.O=C(COc1ccc(Cl)c(F)c1)NC12CCC(NC(=O)COc3ccc(Cl)c(F)c3)(CC1)[C@@H](OCOP(=O)([O-])O)C2.[Na+] [ABBV-CLS-7262]
brain function (model animals): restored to youthful levels

SMILES: O=C(COc1ccc(Cl)cc1)NC12CC(c3nnc([C@H]4C[C@@H](OC(F)(F)F)C4)o3)(C1)C2 [DNL-343]
safety and tolerability [1]: safe and well-tolerated

AUC(0-t) ([3]; mouse IV (1 mg/kg)): 6.32 µg·h/mL
C0 ([3]; mouse IV (1 mg/kg)): 2620 ng/mL
clearance ([3]; mouse IV (1 mg/kg)): 2.49 mL/min/kg
half-life ([3]; mouse IV (1 mg/kg)): 7.37 h
Vd ([3]; mouse IV (1 mg/kg), read-out: Vss): 1410 L/kg
AUC(0-t) ([3]; mouse PO (30 mg/kg)): 217 µg·h/mL
Cmax ([3]; mouse PO (30 mg/kg)): 20100 ng/mL
Tmax ([3]; mouse PO (30 mg/kg)): 2.33 h
bioavailability ([3]; mouse PO (30 mg/kg)): 114%
half-life ([3]; mouse PO (30 mg/kg)): 8.52 h
SMILES: O=C(CO[C@H]1C[C@@H](OC(F)(F)F)C1)NC12CC(Nc3nccnc3O[C@H]3C[C@@H](OC(F)(F)F)C3)(C1)C2 [Compound 3]
EC50 [2]: 1 to 10 nM

SMILES: O=C(COc1ccc(Cl)c(F)c1)N[C@H]1CC[C@H](Nc2ncccc2O[C@H]2C[C@@H](OC(F)(F)F)C2)CC1 [Compound 2]
EC50 [2]: > 100 nM

SMILES: FC(F)(F)OC1CN(c2nnc([C@H]3CC[C@H](Nc4nccnc4O[C@H]4C[C@@H](OC(F)(F)F)C4)CC3)o2)C1 [Compound 4]
EC50 [2]: > 100 nM

SMILES: O=C(COc1ccc(Cl)c(F)c1)N[C@H]1CC[C@H](Nc2nccnc2O[C@H]2C[C@@H](OC(F)(F)F)C2)CC1 [Compound 1]
EC50 [2]: 10 to 100 nM

SMILES: O=C(CO[C@H]1C[C@@H](OC(F)(F)F)C1)N[C@H]1CC[C@H](Nc2nccnc2O[C@H]2C[C@@H](OC(F)(F)F)C2)CC1 [Compound 5]
EC50 [2]: > 100 nM
